# Molecular target: human GLP-1R (Homo sapiens, UniProt P43220)
# Test: GLP-1R Cell Assay 1: cAMP Hunter CHO-K1 GLP1R Gs cell line, HitHunter cAMP assay
# Type: cell-based
# Conditions: Table 2; cAMP Hunter CHO-K1 GLP1R Gs cells; percent activity normalized to Exendin-4
# Outline: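 CHO-K1 cells overexpressing wild-type human GLP-1R treated with 3-fold serially diluted compounds for 30-60 min at 37 °C. cAMP measured by EFC competitive luminescent immunoassay; activity normalised to Exendin-4, duplicate runs, EC50 by nonlinear regression.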
# Sequence of human GLP-1R (P43220 24-463): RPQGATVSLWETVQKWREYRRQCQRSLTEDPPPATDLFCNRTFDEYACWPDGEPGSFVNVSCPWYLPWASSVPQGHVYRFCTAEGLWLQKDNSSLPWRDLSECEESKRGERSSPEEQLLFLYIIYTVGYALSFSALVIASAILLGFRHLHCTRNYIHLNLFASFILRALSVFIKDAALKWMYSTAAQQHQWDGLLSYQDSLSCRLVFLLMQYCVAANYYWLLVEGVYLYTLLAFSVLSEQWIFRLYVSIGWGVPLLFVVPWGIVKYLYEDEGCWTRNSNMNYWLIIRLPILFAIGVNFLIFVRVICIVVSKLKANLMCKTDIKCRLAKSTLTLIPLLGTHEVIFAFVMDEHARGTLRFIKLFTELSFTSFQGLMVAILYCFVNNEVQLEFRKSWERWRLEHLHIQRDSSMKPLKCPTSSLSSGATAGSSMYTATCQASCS
row,Structure (SMILES),EC50 [nM]
1,"O=C(O)c1ccc2nc(CN3CCC(n4ccc(COc5ccccc5)n4)CC3)n(C[C@@H]3CCO3)c2c1 [Compound 26-P1, (S)-1-(oxetan-2-ylmethyl)-2-((4-(3-(phenoxymethyl)-1H-pyrazol-1-yl)piperidin-1-yl)methyl)-1H-benzo[d]imidazole-6-carboxylic acid]",> 500
2,"O=C(O)c1ccc2nc(CN3CCC(c4cccc(OCc5nccs5)n4)CC3)n(C[C@@H]3CCO3)c2c1 [Compound 139, (S)-1-(oxetan-2-ylmethyl)-2-((4-(6-(thiazol-2-ylmethoxy)pyridin-2-yl)piperidin-1-yl)methyl)-1H-benzo[d]imidazole-6-carboxylic acid]",2.65
3,"N#Cc1cccc2c1CN(c1cccc(N3CCN(Cc4nc5ccc(C(=O)O)cc5n4C[C@@H]4CCO4)CC3)n1)CCC2 [Compound 80, (S)-2-((4-(6-(9-cyano-1,3,4,5-tetrahydro-2H-benzo[c]azepin-2-yl)pyridin-2-yl)piperazin-1-yl)methyl)-1-(oxetan-2-ylmethyl)-1H-benzo[d]imidazole-6-carboxylic acid]",37.9
4,"N#Cc1ccc2c(c1)CCN(c1cccc(N3CCN(Cc4nc5ccc(C(=O)O)cc5n4C[C@@H]4CCO4)CC3)n1)C2 [Compound 60, (S)-2-((4-(6-(6-cyano-3,4-dihydroisoquinolin-2(1H)-yl)pyridin-2-yl)piperazin-1-yl)methyl)-1-(oxetan-2-ylmethyl)-1H-benzo[d]imidazole-6-carboxylic acid]",8.18
5,"N#Cc1ccc(COc2nn(C3CCN(Cc4nc5ccc(C(=O)O)cc5n4C[C@@H]4CCO4)CC3)cc2C#N)c(F)c1 [Compound 111, (S)-2-((4-(4-cyano-3-((4-cyano-2-fluorobenzyl)oxy)-1H-pyrazol-1-yl)piperidin-1-yl)methyl)-1-(oxetan-2-ylmethyl)-1H-benzo[d]imidazole-6-carboxylic acid]",36.8
6,"CC(C)c1cn(C2CCN(Cc3nc4ccc(C(=O)O)cc4n3C[C@@H]3CCO3)CC2)nc1OCc1ccc(C#N)cc1F [Compound 118, (S)-2-((4-(3-((4-cyano-2-fluorobenzyl)oxy)-4-isopropyl-1H-pyrazol-1-yl)piperidin-1-yl)methyl)-1-(oxetan-2-ylmethyl)-1H-benzo[d]imidazole-6-carboxylic acid]",185
7,"C[C@@]1(c2cccc(OCc3ccc(C#N)cc3F)n2)CCN(Cc2nc3ccc(C(=O)O)cc3n2C[C@@H]2CCO2)C1 (single isomer, unassigned) [Compound 20-P1]",> 500
8,"N#Cc1ccc(COc2cccc(C3CCN([C@@H]4CCn5c4nc4ccc(C(=O)O)cc45)CC3)n2)c(F)c1 (single isomer, unassigned) [Compound 6-P1]",248
9,"O=C(O)c1ccc2nc(CN3CC[C@]4(c5cccc(OCc6nc7ccccc7s6)n5)C[C@@H]4C3)n(C[C@@H]3CCO3)c2c1 (single isomer, unassigned) [Compound 104-P2]",8.12
10,"O=C(O)c1ccc2nc(CN3CCC(c4cccc(OCc5ncc(Cl)s5)n4)CC3)n(C[C@@H]3CCO3)c2c1 [Compound 134, (S)-2-((4-(6-((5-chlorothiazol-2-yl)methoxy)pyridin-2-yl)piperidin-1-yl)methyl)-1-(oxetan-2-ylmethyl)-1H-benzo[d]imidazole-6-carboxylic acid]",0.222
11,"O=C(O)c1ccc2nc(CN3CCN(c4cccc(OCC5CC6(CCOCC6)C5)n4)CC3)n(C[C@@H]3CCO3)c2c1 [Compound 48, (S)-2-((4-(6-((7-oxaspiro[3.5]nonan-2-yl)methoxy)pyridin-2-yl)piperazin-1-yl)methyl)-1-(oxetan-2-ylmethyl)-1H-benzo[d]imidazole-6-carboxylic acid]",> 500
12,"O=C(O)c1ccc2nc(CN3CCC(n4nc(OCc5ccccc5)c5c4CCCC5)CC3)n(C[C@@H]3CCO3)c2c1 [Compound 23, (S)-2-((4-(3-(benzyloxy)-4,5,6,7-tetrahydro-1H-indazol-1-yl)piperidin-1-yl)methyl)-1-(oxetan-2-ylmethyl)-1H-benzo[d]imidazole-6-carboxylic acid]",> 500
13,"O=C(O)c1ccc2nc(CN3CCC(O)(c4cccc(OCc5ccccc5)n4)CC3)n(C[C@@H]3CCO3)c2c1 [Compound 18, (S)-2-((4-(6-(benzyloxy)pyridin-2-yl)-4-hydroxypiperidin-1-yl)methyl)-1-(oxetan-2-ylmethyl)-1H-benzo[d]imidazole-6-carboxylic acid]",> 500

# Results, then the molecule that gave them:
row,EC50 [nM],Structure (SMILES)
1,0.176,"O=C(O)c1ccc2nc(CN3CCN(c4cccc(OCc5nc6ccc(Cl)cc6s5)n4)CC3)n(C[C@@H]3CCO3)c2c1 [Compound 113, (S)-2-((4-(6-((6-chlorobenzo[d]thiazol-2-yl)methoxy)pyridin-2-yl)piperazin-1-yl)methyl)-1-(oxetan-2-ylmethyl)-1H-benzo[d]imidazole-6-carboxylic acid]"
2,3.28,"O=C(O)c1ccc2nc(CN3CCN(c4cccc(OCc5ccccn5)n4)CC3)n(C[C@@H]3CCO3)c2c1 [Compound 40, (S)-1-(oxetan-2-ylmethyl)-2-((4-(6-(pyridin-2-ylmethoxy)pyridin-2-yl)piperazin-1-yl)methyl)-1H-benzo[d]imidazole-6-carboxylic acid]"
3,15.7,"Cn1c(COc2cccc(N3CCN(Cc4nc5ccc(C(=O)O)cc5n4C[C@@H]4CCO4)CC3)n2)nc2ccccc21 [Compound 71, (S)-2-((4-(6-((1-methyl-1H-benzo[d]imidazol-2-yl)methoxy)pyridin-2-yl)piperazin-1-yl)methyl)-1-(oxetan-2-ylmethyl)-1H-benzo[d]imidazole-6-carboxylic acid]"
4,1.24,"O=C(O)c1ccc2nc(CN3CCN(c4cccc(OCc5nc6cc(Cl)ccc6s5)n4)CC3)n(C[C@@H]3CCO3)c2c1 [Compound 112, (S)-2-((4-(6-((5-chlorobenzo[d]thiazol-2-yl)methoxy)pyridin-2-yl)piperazin-1-yl)methyl)-1-(oxetan-2-ylmethyl)-1H-benzo[d]imidazole-6-carboxylic acid]"
5,0.86,"N#Cc1ccc(COc2cccc(N3CCN(Cc4nc5ccc(C(=O)O)cc5n4C[C@@H]4CCO4)CC3)n2)nc1 [Compound 62, (S)-2-((4-(6-((5-cyanopyridin-2-yl)methoxy)pyridin-2-yl)piperazin-1-yl)methyl)-1-(oxetan-2-ylmethyl)-1H-benzo[d]imidazole-6-carboxylic acid]"
6,> 500,"O=C(O)c1ccc2nc(CN3CCN(c4cccc(OCC5CCOCC5)n4)CC3)n(C[C@@H]3CCO3)c2c1 [Compound 33, (S)-1-(oxetan-2-ylmethyl)-2-((4-(6-((tetrahydro-2H-pyran-4-yl)methoxy)pyridin-2-yl)piperazin-1-yl)methyl)-1H-benzo[d]imidazole-6-carboxylic acid]"
7,4.27,"C[C@@H](Oc1cccc(N2CCN(Cc3nc4ccc(C(=O)O)cc4n3C[C@@H]3CCO3)CC2)n1)c1nc2ccccc2s1 [Compound 116, 2-((4-(6-((R)-1-(benzo[d]thiazol-2-yl)ethoxy)pyridin-2-yl)piperazin-1-yl)methyl)-1-(((S)-oxetan-2-yl)methyl)-1H-benzo[d]imidazole-6-carboxylic acid]"
8,1.07,"O=C(O)c1ccc2nc(CN3CCN(c4cccc(OCc5nc6cccc(F)c6s5)n4)CC3)n(C[C@@H]3CCO3)c2c1 [Compound 123, (S)-2-((4-(6-((7-fluorobenzo[d]thiazol-2-yl)methoxy)pyridin-2-yl)piperazin-1-yl)methyl)-1-(oxetan-2-ylmethyl)-1H-benzo[d]imidazole-6-carboxylic acid]"

# Same assay, conditions: Table 3; cAMP Hunter CHO-K1 GLP1R Gs cells; percent activity normalized to Exendin-4
row,Structure (SMILES),EC50 [nM]
1,"O=C(O)c1ccc2nc(CN3CCC(c4cccc(OC5CCCc6ccccc65)n4)CC3)n(C[C@@H]3CCO3)c2c1 (stereo partly drawn) [Compound 161, 1-(((S)-oxetan-2-yl)methyl)-2-((4-(6-((1,2,3,4-tetrahydronaphthalen-1-yl)oxy)pyridin-2-yl)piperidin-1-yl)methyl)-1H-benzo[d]imidazole-6-carboxylic acid]",304
2,"N#Cc1ccc(CN2CCCc3ccc(N4CCN(Cc5nc6ccc(C(=O)O)cc6n5C[C@@H]5CCO5)CC4)nc32)c(F)c1 [Compound 148, (S)-2-((4-(8-(4-cyano-2-fluorobenzyl)-5,67,8-tetrahydro-1,8-naphthyridin-2-yl)piperazin-1-yl)methyl)-1-(oxetan-2-ylmethyl)-1H-benzo[d]imidazole-6-carboxylic acid]",> 500
3,"N#Cc1cc(F)c2c(c1)CCN(c1cccc(C34CCN(Cc5nc6ccc(C(=O)O)cc6n5CC5CCO5)CC3C4)n1)C2 (stereo not drawn) [Compound 168, 2-((6-(6-(6-cyano-8-fluoro-3,4-dihydroisoquinolin-2(1H)-yl)pyridin-2-yl)-3-azabicyclo[4.1.0]heptan-3-yl)methyl)-1-(oxetan-2-ylmethyl)-1H-benzo[d]imidazole-6-carboxylic acid]",17.4
4,"CCn1ccnc1Cn1c(CN2CC[C@@]3(c4cccc(N5CCc6cc(C#N)cc(F)c6C5)n4)C[C@H]3C2)nc2ccc(C(=O)O)cc21 [Compound 163-P1, 2-(((1R,6S)-6-(6-(6-cyano-8-flluoro-3,4-dihydroisoquinolin-2(1H)-yl)pyridin-2-yl)-3-azabicyclo[4.1.0]heptan-3-yl)methyl)-1-((1-ethyl-1H-imidazol-2-yl)methyl)-1H-benzo[d]imidazole-6-carboxylic acid]",0.266
5,"N#Cc1ccc(COc2cccc(N3CCN(Cc4nc5ccc(C(=O)O)cc5n4C[C@@H]4CCO4)CC3)c2)c(F)c1 [Compound 150, (S)-2-((4-(3-((4-cyano-2-fluorobenzyl)oxy)phenyl)piperazin-1-yl)methyl)-1-(oxetan-2-ylmethyl)-1H-benzo[d]imidazole-6-carboxylic acid]",0.9
6,"CCn1cncc1Cn1c(CN2CC[C@]3(c4cccc(N5CCc6cc(C#N)cc(F)c6C5)n4)C[C@@H]3C2)nc2ccc(C(=O)O)cc21 [Compound 184-P2, 2-(((1S,6R)-6-(6-(6-cyano-8-fluoro-3,4-dihydroisoquinolin-2(1H)-yl)pyridin-2-yl)-3-azabicyclo[3.1.0]heptan-3-yl)methyl)-1-((1-ethyl-1H-imidazol-5-yl)methyl)-1H-benzo[d]imidazole-6-carboxylic acid]",0.414
